In one data set the test system is HEK‐293 cells. The experiment in a line: MTT assay, (photo)cytotoxicity toward HEK-293 cells. Type of data set: cell-based. The procedure: (§1) HeLa and HEK-293 cells were seeded in a 96-well flat-bottomed microplate (≈ 10,000 cells per well) in growth medium (100 µL) and incubated at 37°C under a 5% CO2 atmosphere for […]
(§2) 48 h. The growth medium was removed, and then incubated with either fresh growth medium or complexes 1a – 3a, with concentrations ranging from 10–5 to 10−8 M, in growth medium/DMSO (99:1, v/v) at 37°C for 3 h. The growth medium was removed and replaced with either fresh growth medium or ICPrc-Bn (200 µM) in growth medium/DMSO (99:1, v/v) at 37°C for 4 h. Wells containing untreated cells were used as a blank control. Wells containing cells treated with ICPrc-Bn (200 µM) alone for 4 h were used as a complex-free control. For evaluation of photocytotoxicity, the treated cells were incubated in phenol red-free growth medium (100 µL). One of the microplates was irradiated at 365 nm (5 mW cm−2) with an LED cellular photocytotoxicity irradiator (PURI Materials, Shenzhen, China) for […], whereas the other one was kept in the dark for 10 min. The cells were then incubated in fresh growth medium (100 µL) in the dark for 24 h. A solution containing MTT in PBS (10 µL, 5 mg mL−1) and fresh growth medium (90 µL) was added to each well. The microplate was incubated at 37°C for 4 h. The growth medium was removed, and DMSO (200 µL) was added to each well.
(§3) After 20 min, the absorbance of the solutions at 570 nm was measured with a Multiskan SkyHigh Microplate Spectrophotometer (Thermo Scientific). The IC50 values of the complex were determined from the dose dependence of surviving cells after the treatment using the OriginPro 8.0 software package. […]
Background: Tetrazolium assays rely on reduction of a dye to a coloured formazan, in cell work by metabolically active cells.

For another data set, the system named is HeLa cells. The experiment in a line: MTT assay, (photo)cytotoxicity toward HeLa cells. Type of data set: cell-based. The procedure: as §1, §2
(§4) After 20 min, the absorbance of the solutions at 570 nm was measured with a Multiskan SkyHigh Microplate Spectrophotometer (Thermo Scientific). The IC50 values of the complex were determined from the dose dependence of surviving cells after the treatment using the OriginPro 8.0 software package. For dual-release studies, the cells were incubated with complex 3a, with concentrations ranging from 10–5 to 10−8 M, in growth medium/DMSO (99:1, v/v) at 37°C for 3 h, and replaced with either fresh growth medium or ICPrc-Dox (10 or 50 µM) in growth medium/DMSO (99:1, v/v) at 37°C for 4 h. Wells containing cells treated with ICPrc-Dox (10 or 50 µM) alone for 4 h were used as a complex-free control. Wells containing cells treated with cisplatin (3 h) or Dox (4 h), with concentrations ranging from 10–5 to 10−8 M, in growth medium/DMSO (99:1, v/v) at 37°C were used as positive controls. Furthermore, to evaluate the maximum therapeutic effect of the dual release, concentrations of complex 3b and Dox were serially diluted in a 1:1 ratio to serve as a reference, assuming similar cellular uptake […]
(§5) of complex 3a with 3b and ICPrc-Dox with Dox. Briefly, HeLa cells were incubated with complex 3b, with concentrations ranging from 10–5 to 10−8 M, in growth medium/DMSO (99:1, v/v) at 37°C for 3 h, and replaced with either fresh growth medium or Dox, with concentrations ranging from 10–5 to 10−8 M, in growth medium/DMSO (99:1, v/v) at 37°C for 4 h.

Data set [1] can be described thus: MTT assay, (photo)cytotoxicity toward HEK-293 cells. Particulars: human, HEK-293 cells, read-out: cell viability. The data set is classed as cell-based. The procedure: as §1, §2, §3
Data set [2] in a line: MTT assay, (photo)cytotoxicity toward HeLa cells. Type of data set: cell-based. The following applies: human, HeLa cells, read-out: cell viability. The procedure: as §1, §2, §4, §5
A short description of data set [3]: Stability of ICPr/ICPrc derivatives in serum (HPLC). The following applies: 25 µM in 25% FBS, 37 °C, dark. The data set is classed as in vitro ADME. On the procedure: was incubated with ICPr-coum (80 µM) in aerated McIlvaine buffer (pH 7.4 or 5.0)/CH3CN (4:1, v/v) at 37°C. The reactions at different time points were quenched by the addition of 900 µL of cold H2O/CH3CN (1:1, v/v) and then analyzed by RP-HPLC. The HPLC analysis was conducted following the elution conditions specified for the reaction kinetic studies. The release yields were plotted against time. The half-lives (t1/2) were defined as the time required for the concentration of the reactant to decrease by half of its initial quantity, obtained through an exponential fit of the curve. The release yields were defined as the quantity of the final product, umbelliferone, liberated in the reaction. Furthermore, to evaluate the effect of ether versus carbamate linkages within the ICPr/ICPrc moiety on release kinetics, the half-lives of ICPr-coum, ICPr-fluorescein, and ICPrc-Dox were determined by HPLC analyses. Equimolar mixtures of complex 3a (50 µM) and each ICPr/ICPrc derivative (50 µM) were incubated in aerated McIlvaine buffer (pH 7.4)/DMSO (4:1, v/v) at 37°C. The reactions at different time points were quenched by the addition of 900 µL of cold H2O/CH3CN (1:1, v/v) and then […]
Stability of ICPr/ICPrc Derivatives in Serum
ICPr-fluorescein or ICPrc-Dox (25 µM) was incubated in 25% FBS at 37 °C in the dark for 48 h. […]

A short description of data set [4]: 1O2 generation quantum yield from 1O2 emission at around 1270 nm. Type of data set: physicochemical. Particulars: aerated CH3CN, 298 K; λex = 350 nm; reference phenalenone. The procedure:
(§6) The ^1O2 generation efficiencies of the complexes were evaluated by monitoring the emission band of ^1O2 centered at around 1270 nm^[ [34], [35] ^] in aerated CH3CN. […] Considering the pH‐dependent emission properties of complexes 1b–3b, we believe that their ^1O2 photosensitization efficiencies would also be influenced by pH. Taking complex 3b as an example, its ^1O2 generation efficiency was evaluated in aerated McIlvaine buffer solutions at various pH levels by the 9,10‐anthracenediyl‐bis(methylene)dimalonic acid (ABDA) assay.^[ [36] ^] […] Thus, the TzMe complexes are anticipated to function as pH‐sensitive phosphorogenic bioorthogonal probes, enabling simultaneous detection and photodynamic therapy in lysosomal compartments (pH ≈ 4.5–5.0)^[ [37], [38] ^] and acidic TME.

Data set [5] in a line: 1O2 generation quantum yield by ABDA assay in McIlvaine buffer. Type of data set: physicochemical. Particulars: 298 K. The procedure: as §6, with “TME. […]” for “TME.”
where the subscripts s and r refer to the sample and reference solutions, respectively, Φ is 1O2 quantum yield, m is the slope of a linear fit of the change of absorbance at 378 nm against the irradiation time, B is 1 – 10–AL, A is absorbance at the excitation wavelength, and L is path […]
To confirm the liberation of ICPr/ICPrc -caged compounds during the reaction, the concurrent release of compounds from their respective tetrazine and ICPr/ICPrc caging groups was studied by RP-HPLC analysis. Complex 3a (50 µM) and ICPr -coum (40 µM) were incubated in aerated McIlvaine buffer (pH 7.4)/DMSO (4:1, v/v) at 37°C for 18 h. The reaction mixture was subjected to HPLC analysis. The HPLC analysis was performed using an Agilent analytical column (ZORBAX Eclipse Plus C18 column: 4.6 × 150 mm, 5 µm) with a linear gradient of 0 − 100% solvent B over 12 min and a flow rate of 1 mL min −1. The emission was monitored at the emission peak maxima of the released products, umbelliferone (also known as 7 - hydroxycoumarin) (λex = 350 nm, λem = 460 nm) and complex 3b (λex = 350 nm, λem = 562 nm). […] The emission spectrum was recorded on a HORIBA FluoroMax-4 spectrofluorometer. […] The reaction was monitored by HPLC analyses after incubation for 4 and 24 h.

[6] abbreviates: – ICPrc‐Bn, irradiation at 365 nm (5 mW cm−2) for 5 min, read-out: IC50,light.
[7] abbreviates: ICPrc‐Bn (200 µM) alone for 4 h, subsequently irradiated.
Where [8] appears, read: ICPrc‐Dox (10 or 50 µM) alone, dark and irradiation.

The values below come from article PMC12684313, “Controlled Dual Activation of Rhenium(I) Photosensitizers and Profluorophores/Prodrugs via a Dissociative Bioorthogonal Tetrazine–Isonitrile Reaction” (Angewandte Chemie (International Ed. in English), 2025).

Where two headings read alike, the source gives them in different places.

The term IC50 denotes the midpoint of a concentration-inhibition curve. As a reminder, the viability is a read-out of living cells in per cent, often relative to untreated cells.

Turning to `N.N.[Cl][Pt][Cl]` [Cisplatin, cisplatin, reference compound], the half-maximal inhibitory concentration (IC50) with HEK‐293 cells (– ICPrc‐Bn, dark, read-out: IC50,dark) was greater than 50 µM; in the data set with HEK‐293 cells (setting [6]), greater than 50 µM; in the data set on HeLa cells (– ICPrc‐Bn (complex 3 h, fresh medium 4 h; cisplatin 3 h), dark, read-out: IC50,dark), greater than 50 µM; with HeLa cells (setting [6]) it was greater than 50 µM.
Turning to `COc1cccc2c1C(=O)c1c(O)c3c(c(O)c1C2=O)C[C@@](O)(C(=O)CO)C[C@@H]3O[C@H]1C[C@H](N)[C@H](O)[C@H](C)O1` [Dox, doxorubicin, reference compound], the IC50 was greater than 50 µM with HEK‐293 cells (Homo sapiens, HEK293, Table 2, no ICPrc‐Dox, dark, read-out: IC50,dark); 43 ± 2 µM with HEK‐293 cells (Homo sapiens, HEK293, light or radiation study, 5 min, Table 2, no ICPrc‐Dox, irradiation at 365 nm (5 mW cm−2) for 5 min, read-out: IC50,light); 5.8 ± 0.6 µM in the data set on HeLa cells (Homo sapiens, Table 2, no ICPrc‐Dox (3a 3 h then fresh medium 4 h; Dox 4 h), dark, read-out: IC50,dark); 5.3 ± 0.6 µM with HeLa cells (Homo sapiens, light or radiation study, 5 min, Table 2, no ICPrc‐Dox, irradiation at 365 nm (5 mW cm−2) for 5 min, read-out: IC50,light). In addition, the “PI (IC50,dark/IC50,light)” value is given as greater than 1 in the data set with HEK‐293 cells (Table 2, no ICPrc‐Dox) and 1 in the data set on HeLa cells (Table 2, no ICPrc‐Dox).
Take `[C-]#[N+]CCCOC(=O)NCc1ccccc1` [ICPrc‐Bn, 3‐isocyanopropyl benzylcarbamate, reference compound]: the viability at 4 h, 200 µM in data set [1] (setting [7]) and in data set [2] (setting [7]) was greater than 98% throughout.
On to `[C-]#[N+]CCCOC(=O)NC1CC(OC2CC(O)(C(=O)CO)Cc3c(O)c4c(c(O)c32)C(=O)c2c(OC)cccc2C4=O)OC(C)C1O` (centres unmarked) [ICPrc‐Dox, N-(3-isocyanopropyl-1-carbamoyl)doxorubicin, reference compound], for which the “time stable in serum” value in data set [3] is on record as “over 48 h”. The viability at 4 h in data set [1] (setting [8]) and in data set [2] (setting [8]) was greater than 98% in each case.
Regarding `[C-]#[N+]CCCOc1ccc2c(-c3ccccc3C(=O)O)c3ccc(=O)cc-3oc2c1` [ICPr‐fluorescein], the “time stable in serum” value in data set [3] was “at least 48 h”.
As for `O=S(=O)([O-])C(F)(F)F.O=[C]=[Re-2]1(=[C]=O)(=[C]=O)([n+]2cccc(O)c2)[n+]2ccc(-c3ccccc3)c3ccc4c(-c5ccccc5)cc[n+]1c4c32` [complex 3b, [Re(N^N)(CO)3(py‐OH)](CF3SO3)], the “1O2 generation quantum yield (ΦΔ)” value is listed as 0.63 in data set [4]; 0.24 in data set [5] (aerated McIlvaine buffer pH 3.0/CH3CN (4:1, v/v)); 0.12 in data set [5] (aerated McIlvaine buffer pH 5.0/CH3CN (4:1, v/v)); “Negligible” in data set [5] (aerated McIlvaine buffer pH 7.4/CH3CN (4:1, v/v)). In addition, in the data set on HeLa cells (Table S10), the “PI (IC50,dark/IC50,light)” value was 6. Further, the half-inhibitory concentration (IC50) is 29 µM in the data set with HeLa cells (Table S10, 3b 3 h then fresh medium or Dox (1:1 ratio) 4 h, dark, read-out: IC50,dark) and 5.1 µM in the data set on HeLa cells (Table S10, 3b 3 h then fresh medium or Dox (1:1 ratio) 4 h, irradiation at 365 nm (5 mW cm−2) for 5 min, read-out: IC50,light).
